This note sets out measurements from US20240269298A1, “PHOSPHONYL DERIVATIVE, AND COMPOSITION AND PHARMACEUTICAL APPLICATION THEREOF” (XIZANG HAISCO PHARMACEUTICAL CO., LTD., priority 2021, published 2024).

As usually defined, the IC50 is the concentration at which inhibition is half-maximal.

The assay relates to NCI-H1975 (EGFR-L858R-T790M) cells. The assay is described as follows: Inhibitory activity on proliferation of NCI-H1975 (EGFR-L858R-T790M) cells (CTG, 72 h). The format is cell-based. Conditions: Homo sapiens. Here is the method: NCI-H1975 (EGFR-L858R-T790M) and A431 (EGFR-WT) cells were purchased from ATCC and cultured in an incubator at 37° C. with 5% CO2, and the culture mediums were RPMI1640+10% FBS and DMEM+10% FBS, respectively. On the first day, NCI-H1975 (EGFR-L858R-T790M) and A431 (EGFR-WT) cells in the logarithmic phase were collected, and viable cells were counted using an automatic cell analyzer (countstar). The cell suspensions were adjusted with the culture mediums and plated on a 96-well cell culture plate at 1000 cells/well for NCI-H1975 (EGFR-L858R-T790M) cells and at 3000 cells/well for A431 cells. The next day, the culture mediums were aspirated, and 90 μL of fresh culture mediums and 10 μL of the compounds at different concentrations were added to each well, wherein the final concentration of DMSO in each well was 0.1%. The plate was cultured in the incubator at 37° C. with 5% CO2 for 72 hours. After 72 hours of drug treatment, 50 μL of CTG solution (promega, G7572), which was already pre-melted and equilibrated to room temperature, was added to each well, and the mixtures were uniformly mixed for 2 min using a microplate shaker. The plate was placed at room temperature for 10 min, and then […] signal values were measured using a microplate reader (PHERAstar FSX).
Surviving cells % was calculated based on Vsample/Vvehicle control×100%, wherein Vsample was the readout of the drug-treated group, and Vvehicle control was the average value of the vehicle control group. Using the origin 9.2 software and nonlinear regression model, S-shaped dose-survival curves were plotted, and IC50 values were calculated.

The mark [1] stands for this setting: read-out: IC50 (value in brackets).

Where two headings read alike, the source gives them in different places.

Consider `COc1cc(N2CCC(CN3CCN(c4ccc(C5CCC(=O)NC5=O)c(F)c4)CC3)CC2)c(-c2cnn(C)c2)cc1Nc1ncc(Cl)c(Nc2ccc(-c3ccccc3)cc2P(C)(C)=O)n1` (centres unmarked) [Compound 156, 3-(4-(4-((1-(4-((5-chloro-4-((3-(dimethylphosphoryl)-[1,1′-biphenyl]-4-yl)amino)pyrimidin-2-yl)amino)-5-methoxy-2-(1-methyl-1H-pyrazol-4-yl)phenyl)piperidin-4-yl)methyl)piperazin-1-yl)-2-fluorophenyl)piperidine-2,6-dione], for which the IC50 was under 100 nM (read-out: IC50 (class symbol)) and 64 nM under setting [1]. For `COc1cc(N2CCC(CN3CCN(c4ccc(NC5CCC(=O)NC5=O)cc4F)CC3)CC2)c(-c2cnn(C)c2)cc1Nc1ncc(Cl)c(Nc2ccc(C3CC3)cc2P(C)(C)=O)n1` (centres unmarked) [Compound 158, 3-((4-(4-((1-(4-((5-chloro-4-((4-cyclopropyl-2-(dimethylphosphoryl)phenyl)amino)pyrimidin-2-yl)amino)-5-methoxy-2-(1-methyl-1H-pyrazol-4-yl)phenyl)piperidin-4-yl)methyl)piperazin-1-yl)-3-fluorophenyl)amino)piperidine-2,6-dione], in that order: under 100 nM and 26 nM. For `COc1cc(N2CCC(N3CCN(c4ccc5c(c4)C(=O)N(C4CCC(=O)NC4=O)C5=O)CC3)CC2)c(-c2cnn(C)c2)cc1Nc1ncc(Cl)c(Nc2ccccc2P(C)(C)=O)n1` (centres unmarked) [Compound 115, 5-(4-(1-(4-((5-chloro-4-((2-(dimethylphosphoryl)phenyl)amino)pyrimidin-2-yl)amino)-5-methoxy-2-(1-methyl-1H-pyrazol-4-yl)phenyl)piperidin-4-yl)piperazin-1-yl)-2-(2,6-dioxopiperidin-3-yl)isoindoline-1,3-dione], in that order: under 100 nM and 73 nM. For `COc1cc(N2CCC(CN3CCN(c4ccc5c(c4)CN(C4CCC(=O)NC4=O)C5=O)CC3)CC2)c(-c2cnn(C)c2)cc1Nc1ncc(Cl)c(Nc2ccccc2P(C)(C)=O)n1` (centres unmarked) [Compound 140, 3-(5-(4-((1-(4-((5-chloro-4-((2-(dimethylphosphoryl)phenyl)amino)pyrimidin-2-yl)amino)-5-methoxy-2-(1-methyl-1H-pyrazol-4-yl)phenyl)piperidin-4-yl)methyl)piperazin-1-yl)-1-oxoisoindolin-2-yl)piperidine-2,6-dione], in that order: under 100 nM and 32 nM. Consider `COc1cc(N2CCN(C3CN(c4ccc5c(c4)C(=O)N(C4CCC(=O)NC4=O)C5=O)C3)CC2)c(-c2cnn(C)c2)cc1Nc1ncc(Cl)c(Nc2ccccc2P(C)(C)=O)n1` (centres unmarked) [Compound 149, 5-(3-(4-(4-((5-chloro-4-((2-(dimethylphosphoryl)phenyl)amino)pyrimidin-2-yl)amino)-5-methoxy-2-(1-methyl-1H-pyrazol-4-yl)phenyl)piperazin-1-yl)azetidin-1-yl)-2-(2,6-dioxopiperidin-3-yl)isoindoline-1,3-dione], for which the IC50 was 100 to 500 nM (read-out: IC50 (class symbol)) and 116 nM under setting [1]. Turning to `COc1cc(N2CCC(CN3CCN(c4ccc(NC5CCC(=O)NC5=O)cc4F)CC3)CC2)c(-c2cnn(C)c2)cc1Nc1ncc(Cl)c(Nc2ccc(F)cc2P(C)(C)=O)n1` (centres unmarked) [Compound 159, 3-((4-(4-((1-(4-((5-chloro-4-((2-(dimethylphosphoryl)-4-fluorophenyl)amino)pyrimidin-2-yl)amino)-5-methoxy-2-(1-methyl-1H-pyrazol-4-yl)phenyl)piperidin-4-yl)methyl)piperazin-1-yl)-3-fluorophenyl)amino)piperidine-2,6-dione], the IC50 runs as follows: (read-out: IC50 (class symbol)) under 100 nM; under setting [1], 21 nM. Regarding `COc1cc(N2CCC(CN3CCN(c4ccc(C5CCC(=O)NC5=O)c(F)c4)CC3)CC2)c(-c2cnn(C)c2)cc1Nc1ncc(Cl)c(Nc2ccc(C3CC3)cc2P(C)(C)=O)n1` (centres unmarked) [Compound 153, 3-(4-(4-((1-(4-((5-chloro-4-((4-cyclopropyl-2-(dimethylphosphoryl)phenyl)amino)pyrimidin-2-yl)amino)-5-methoxy-2-(1-methyl-1H-pyrazol-4-yl)phenyl)piperidin-4-yl)methyl)piperazin-1-yl)-2-fluorophenyl)piperidine-2,6-dione], the IC50 is under 100 nM (read-out: IC50 (class symbol)) and 73 nM under setting [1].

`COc1cc(N2CCN(Cc3cccc(NC4CCC(=O)NC4=O)c3)CC2)c(-c2cnn(C)c2)cc1Nc1ncc(Br)c(Nc2ccc(-c3ccccc3)cc2P(C)(C)=O)n1` (centres unmarked) [Compound 74, 3-((3-((4-(4-((5-bromo-4-((3-(dimethylphosphoryl)-[1,1′-biphenyl]-4-yl)amino)pyrimidin-2-yl)amino)-5-methoxy-2-(1-methyl-1H-pyrazol-4-yl)phenyl)piperazin-1-yl)methyl)phenyl)amino)piperidine-2,6-dione]: the IC50 reads like this: (read-out: IC50 (class symbol)) 100 to 500 nM; under setting [1], 313 nM. For `COc1cc(N2CCC(N3CCC4(CCCN(c5cc6c(cc5F)C(=O)N(C5CCC(=O)NC5=O)C6=O)C4)CC3)CC2)c(-c2cnn(C)c2)cc1Nc1ncc(Br)c(Nc2ccc3nccnc3c2P(C)(C)=O)n1` (centres unmarked) [Compound 33, 5-(9-(1-(4-((5-bromo-4-((5-(dimethylphosphoryl)quinoxalin-6-yl)amino)pyrimidin-2-yl)amino)-5-methoxy-2-(1-methyl-1H-pyrazol-4-yl)phenyl)piperidin-4-yl)-2,9-diazaspiro[5.5]undecan-2-yl)-2-(2,6-dioxopiperidin-3-yl)-6-fluoroisoindoline-1,3-dione], in that order: under 100 nM and 28 nM. For the molecule `COc1cc(N2CCC(N3CCC(CN4CCCC5(CCN(c6ccc7c(c6)C(=O)N(C6CCC(=O)NC6=O)C7=O)CC5)C4)CC3)CC2)c(-c2cnn(C)c2)cc1Nc1ncc(Cl)c(Nc2ccc3nccnc3c2P(C)(C)=O)n1` (centres unmarked) [Compound 17, 5-(2-((1′-(4-((5-chloro-4-((5-(dimethylphosphoryl)quinoxalin-6-yl)amino)pyrimidin-2-yl)amino)-5-methoxy-2-(1-methyl-1H-pyrazol-4-yl)phenyl)-[1,4′-bipiperidin]-4-yl)methyl)-2,9-diazaspiro[5.5]undecan-9-yl)-2-(2,6-dioxopiperidin-3-yl)isoindoline-1,3-dione], the IC50 (read-out: IC50 (class symbol)) lay within 100 to 500 nM. Consider `COc1cc(N2CCC(CN3CCC4(CC3)CCN(c3ccc(C(=O)NC5CCC(=O)NC5=O)nc3)CC4)CC2)c(-c2cnn(C)c2)cc1Nc1ncc(Cl)c(Nc2ccc(-c3ccccc3)cc2P(C)(C)=O)n1` (centres unmarked) [Compound 70, 5-(9-((1-(4-((5-chloro-4-((3-(dimethylphosphoryl)-[1,1′-biphenyl]-4-yl)amino)pyrimidin-2-yl)amino)-5-methoxy-2-(1-methyl-1H-pyrazol-4-yl)phenyl)piperidin-4-yl)methyl)-3,9-diazaspiro[5.5]undecan-3-yl)-N-(2,6-dioxopiperidin-3-yl)picolinamide], for which the IC50 is under 100 nM (read-out: IC50 (class symbol)) and 39 nM under setting [1]. Turning to `COc1cc(N2CCC(CN3CCN(c4ccc(C5CCC(=O)NC5=O)cc4)CC3)CC2)c(-c2cnn(C)c2)cc1Nc1ncc(Cl)c(Nc2ccc(-c3ccccc3)cc2P(C)(C)=O)n1` (centres unmarked) [Compound 155, 3-(4-(4-((1-(4-((5-chloro-4-((3-(dimethylphosphoryl)-[1,1′-biphenyl]-4-yl)amino)pyrimidin-2-yl)amino)-5-methoxy-2-(1-methyl-1H-pyrazol-4-yl)phenyl)piperidin-4-yl)methyl)piperazin-1-yl)phenyl)piperidine-2,6-dione], the IC50 was under 100 nM (read-out: IC50 (class symbol)) and 43 nM under setting [1].

Take `COc1cc(N2CCC(N3CCC4(CCCN(c5cc6c(cc5F)C(=O)N(C5CCC(=O)NC5=O)C6=O)C4)CC3)CC2)c(-c2cnn(C)c2)cc1Nc1ncc(Cl)c(Nc2ccc3nccnc3c2P(C)(C)=O)n1` (centres unmarked) [Compound 28, 5-(9-(1-(4-((5-chloro-4-((5-(dimethylphosphoryl)quinoxalin-6-yl)amino)pyrimidin-2-yl)amino)-5-methoxy-2-(1-methyl-1H-pyrazol-4-yl)phenyl)piperidin-4-yl)-2,9-diazaspiro[5.5]undecan-2-yl)-2-(2,6-dioxopiperidin-3-yl)-6-fluoroisoindoline-1,3-dione]: the IC50 (read-out: IC50 (class symbol)) was under 100 nM and the IC50 under setting [1] turned out to be 33 nM. For `COc1cc(N2CCC3(CCN(Cc4cccc(NC5CCC(=O)NC5=O)c4)CC3)CC2)c(-c2cnn(C)c2)cc1Nc1ncc(Cl)c(Nc2ccc(-c3ccccc3)cc2P(C)(C)=O)n1` (centres unmarked) [Compound 130, 3-((3-((9-(4-((5-chloro-4-((3-(dimethylphosphoryl)-[1,1′-biphenyl]-4-yl)amino)pyrimidin-2-yl)amino)-5-methoxy-2-(1-methyl-1H-pyrazol-4-yl)phenyl)-3,9-diazaspiro[5.5]undecan-3-yl)methyl)phenyl)amino)piperidine-2,6-dione] the same measures were 100 to 500 nM and 118 nM. As to `COc1cc(N2CCC(CN3CCN(c4ccc(C5CCC(=O)NC5=O)c(F)c4)CC3)CC2)c(-c2cnn(C)c2)cc1Nc1ncc(Cl)c(Nc2ccccc2P(C)(C)=O)n1` (centres unmarked) [Compound 154, 3-(4-(4-((1-(4-((5-chloro-4-((2-(dimethylphosphoryl)phenyl)amino)pyrimidin-2-yl)amino)-5-methoxy-2-(1-methyl-1H-pyrazol-4-yl)phenyl)piperidin-4-yl)methyl)piperazin-1-yl)-2-fluorophenyl)piperidine-2,6-dione], the IC50 is under 100 nM (read-out: IC50 (class symbol)) and 46 nM under setting [1].
